# According to US20260027116A1, “Methods of Treating Chronic Graft-Versus-Host Disease Following Allogeneic Hematopoietic Stem Cell Transplantation” (Kadmon Corporation, LLC, priority 2022, published 2026):
# System: lung function
# Assay: Example 1: percent predicted FEV1 change from baseline
# Type: in vivo, human
# Experimental: Change From Baseline in Percent Predicted Forced Expiratory Volume in 1 Second (FEV1) at Each Specified Time Points. FEV1 was the volume of air exhaled from the lungs in the first second of a forced expiration as measured by spirometer. Baseline value was defined as valid and last non-missing value obtained within 28 days prior to participant receiving first study medication. EOT visit was performed within 3 days after the participant's last dose of study drug. […] Analysis was performed on mITT population. Here, ‘number analyzed’=participants with available data for each specified category. Here, ‘O’ in the number analyzed field signifies that none of the participants were available for the analysis at the specified time points.
compound,measurement,setting,value
"CC(C)NC(=O)COc1cccc(-c2nc(Nc3ccc4[nH]ncc4c3)c3ccccc3n2)c1 [Belumosudil, 2-{3-[4-(1H-indazol-5-ylamino)-2-quinazolinyl]phenoxy}-N-(propan-2-yl) acetamide]","Change From Baseline in Percent Predicted Forced Expiratory Volume in 1 Second (FEV1), Mean (Standard Deviation)","Cohort 1: 200 mg QD, Cycle 53, Day 1",9.0 (—) percent predicted FEV1
same,"Change From Baseline in Percent Predicted Forced Expiratory Volume in 1 Second (FEV1), Mean (Standard Deviation)","Cohort 1: 200 mg QD, Cycle 54, Day 1",4.0 (—) percent predicted FEV1
same,"Change From Baseline in Percent Predicted Forced Expiratory Volume in 1 Second (FEV1), Mean (Standard Deviation)","Cohort 1: 200 mg QD, Cycle 55, Day 1",13.0 (—) percent predicted FEV1
same,"Change From Baseline in Percent Predicted Forced Expiratory Volume in 1 Second (FEV1), Mean (Standard Deviation)","Cohort 1: 200 mg QD, Cycle 56, Day 1",4.0 (—) percent predicted FEV1
same,"Change From Baseline in Percent Predicted Forced Expiratory Volume in 1 Second (FEV1), Mean (Standard Deviation)","Cohort 1: 200 mg QD, Cycle 57, Day 1",13.0 (—) percent predicted FEV1
same,"Change From Baseline in Percent Predicted Forced Expiratory Volume in 1 Second (FEV1), Mean (Standard Deviation)","Cohort 1: 200 mg QD, Cycle 58, Day 1",5.0 (—) percent predicted FEV1
same,"Change From Baseline in Percent Predicted Forced Expiratory Volume in 1 Second (FEV1), Mean (Standard Deviation)","Cohort 1: 200 mg QD, Cycle 60, Day 1",4.0 (—) percent predicted FEV1
same,"Change From Baseline in Percent Predicted Forced Expiratory Volume in 1 Second (FEV1), Mean (Standard Deviation)","Cohort 1: 200 mg QD, Cycle 61, Day 1",10.0 (—) percent predicted FEV1
same,"Change From Baseline in Percent Predicted Forced Expiratory Volume in 1 Second (FEV1), Mean (Standard Deviation)","Cohort 1: 200 mg QD, Cycle 62, Day 1",2.0 (—) percent predicted FEV1
same,"Change From Baseline in Percent Predicted Forced Expiratory Volume in 1 Second (FEV1), Mean (Standard Deviation)","Cohort 1: 200 mg QD, Cycle 63, Day 1",13.0 (—) percent predicted FEV1
same,"Change From Baseline in Percent Predicted Forced Expiratory Volume in 1 Second (FEV1), Mean (Standard Deviation)","Cohort 1: 200 mg QD, Cycle 67, Day 1",14.0 (—) percent predicted FEV1
same,"Change From Baseline in Percent Predicted Forced Expiratory Volume in 1 Second (FEV1), Mean (Standard Deviation)","Cohort 1: 200 mg QD, EOT",−1.4 (9.0) percent predicted FEV1
same,"Change From Baseline in Percent Predicted Forced Expiratory Volume in 1 Second (FEV1), Mean (Standard Deviation)","Cohort 2: 200 mg BID, Cycle 3, Day 1",−1.8 (7.1) percent predicted FEV1
same,"Change From Baseline in Percent Predicted Forced Expiratory Volume in 1 Second (FEV1), Mean (Standard Deviation)","Cohort 2: 200 mg BID, Cycle 5, Day 1",−5.0 (6.5) percent predicted FEV1
same,"Change From Baseline in Percent Predicted Forced Expiratory Volume in 1 Second (FEV1), Mean (Standard Deviation)","Cohort 2: 200 mg BID, Cycle 7, Day 1",−2.6 (9.4) percent predicted FEV1
same,"Change From Baseline in Percent Predicted Forced Expiratory Volume in 1 Second (FEV1), Mean (Standard Deviation)","Cohort 2: 200 mg BID, Cycle 8, Day 1",1.0 (—) percent predicted FEV1
same,"Change From Baseline in Percent Predicted Forced Expiratory Volume in 1 Second (FEV1), Mean (Standard Deviation)","Cohort 2: 200 mg BID, Cycle 9, Day 1",−5.9 (11.7) percent predicted FEV1
same,"Change From Baseline in Percent Predicted Forced Expiratory Volume in 1 Second (FEV1), Mean (Standard Deviation)","Cohort 2: 200 mg BID, Cycle 10, Day 1",−6.0 (8.5) percent predicted FEV1
same,"Change From Baseline in Percent Predicted Forced Expiratory Volume in 1 Second (FEV1), Mean (Standard Deviation)","Cohort 2: 200 mg BID, Cycle 11, Day 1",−4.0 (8.5) percent predicted FEV1
same,"Change From Baseline in Percent Predicted Forced Expiratory Volume in 1 Second (FEV1), Mean (Standard Deviation)","Cohort 2: 200 mg BID, Cycle 12, Day 1",−1.0 (—) percent predicted FEV1
same,"Change From Baseline in Percent Predicted Forced Expiratory Volume in 1 Second (FEV1), Mean (Standard Deviation)","Cohort 2: 200 mg BID, Cycle 13, Day 1",−2.5 (14.7) percent predicted FEV1
same,"Change From Baseline in Percent Predicted Forced Expiratory Volume in 1 Second (FEV1), Mean (Standard Deviation)","Cohort 2: 200 mg BID, Cycle 14, Day 1",0.0 (—) percent predicted FEV1
same,"Change From Baseline in Percent Predicted Forced Expiratory Volume in 1 Second (FEV1), Mean (Standard Deviation)","Cohort 2: 200 mg BID, Cycle 15, Day 1",−2.3 (5.1) percent predicted FEV1
same,"Change From Baseline in Percent Predicted Forced Expiratory Volume in 1 Second (FEV1), Mean (Standard Deviation)","Cohort 2: 200 mg BID, Cycle 16, Day 1",−8.0 (15.6) percent predicted FEV1
same,"Change From Baseline in Percent Predicted Forced Expiratory Volume in 1 Second (FEV1), Mean (Standard Deviation)","Cohort 2: 200 mg BID, Cycle 17, Day 1",−6.0 (7.2) percent predicted FEV1
same,"Change From Baseline in Percent Predicted Forced Expiratory Volume in 1 Second (FEV1), Mean (Standard Deviation)","Cohort 2: 200 mg BID, Cycle 18, Day 1",−7.5 (10.6) percent predicted FEV1
same,"Change From Baseline in Percent Predicted Forced Expiratory Volume in 1 Second (FEV1), Mean (Standard Deviation)","Cohort 2: 200 mg BID, Cycle 19, Day 1",−6.3 (5.5) percent predicted FEV1
same,"Change From Baseline in Percent Predicted Forced Expiratory Volume in 1 Second (FEV1), Mean (Standard Deviation)","Cohort 2: 200 mg BID, Cycle 25, Day 1",−12.5 (3.5) percent predicted FEV1
same,"Change From Baseline in Percent Predicted Forced Expiratory Volume in 1 Second (FEV1), Mean (Standard Deviation)","Cohort 2: 200 mg BID, Cycle 27, Day 1",−17.0 (9.9) percent predicted FEV1
same,"Change From Baseline in Percent Predicted Forced Expiratory Volume in 1 Second (FEV1), Mean (Standard Deviation)","Cohort 2: 200 mg BID, Cycle 29, Day 1",17.0 (11.3) percent predicted FEV1
same,"Change From Baseline in Percent Predicted Forced Expiratory Volume in 1 Second (FEV1), Mean (Standard Deviation)","Cohort 2: 200 mg BID, Cycle 31, Day 1",−19.5 (10.6) percent predicted FEV1
same,"Change From Baseline in Percent Predicted Forced Expiratory Volume in 1 Second (FEV1), Mean (Standard Deviation)","Cohort 2: 200 mg BID, Cycle 33, Day 1",−1.0 (33.9) percent predicted FEV1
same,"Change From Baseline in Percent Predicted Forced Expiratory Volume in 1 Second (FEV1), Mean (Standard Deviation)","Cohort 2: 200 mg BID, Cycle 35, Day 1",−2.5 (30.4) percent predicted FEV1
same,"Change From Baseline in Percent Predicted Forced Expiratory Volume in 1 Second (FEV1), Mean (Standard Deviation)","Cohort 2: 200 mg BID, Cycle 37, Day 1",−22.0 (—) percent predicted FEV1
same,"Change From Baseline in Percent Predicted Forced Expiratory Volume in 1 Second (FEV1), Mean (Standard Deviation)","Cohort 2: 200 mg BID, Cycle 39, Day 1",−23.0 (11.3) percent predicted FEV1
same,"Change From Baseline in Percent Predicted Forced Expiratory Volume in 1 Second (FEV1), Mean (Standard Deviation)","Cohort 2: 200 mg BID, Cycle 43, Day 1",−21.0 (—) percent predicted FEV1
same,"Change From Baseline in Percent Predicted Forced Expiratory Volume in 1 Second (FEV1), Mean (Standard Deviation)","Cohort 2: 200 mg BID, EOT",−10.1 (15.7) percent predicted FEV1
same,"Change From Baseline in Percent Predicted Forced Expiratory Volume in 1 Second (FEV1), Mean (Standard Deviation)","Cohort 3: 400 mg QD, Cycle 2, Day 1",−4.8 (6.7) percent predicted FEV1
same,"Change From Baseline in Percent Predicted Forced Expiratory Volume in 1 Second (FEV1), Mean (Standard Deviation)","Cohort 3: 400 mg QD, Cycle 3, Day 1",−1.5 (6.2) percent predicted FEV1
same,"Change From Baseline in Percent Predicted Forced Expiratory Volume in 1 Second (FEV1), Mean (Standard Deviation)","Cohort 3: 400 mg QD, Cycle 4, Day 1",−0.2 (8.4) percent predicted FEV1
same,"Change From Baseline in Percent Predicted Forced Expiratory Volume in 1 Second (FEV1), Mean (Standard Deviation)","Cohort 3: 400 mg QD, Cycle 5, Day 1",0.5 (5.9) percent predicted FEV1
same,"Change From Baseline in Percent Predicted Forced Expiratory Volume in 1 Second (FEV1), Mean (Standard Deviation)","Cohort 3: 400 mg QD, Cycle 6, Day 1",−0.9 (6.4) percent predicted FEV1
same,"Change From Baseline in Percent Predicted Forced Expiratory Volume in 1 Second (FEV1), Mean (Standard Deviation)","Cohort 3: 400 mg QD, Cycle 7, Day 1",−0.9 (11.8) percent predicted FEV1
same,"Change From Baseline in Percent Predicted Forced Expiratory Volume in 1 Second (FEV1), Mean (Standard Deviation)","Cohort 3: 400 mg QD, Cycle 8, Day 1",−1.1 (8.0) percent predicted FEV1
same,"Change From Baseline in Percent Predicted Forced Expiratory Volume in 1 Second (FEV1), Mean (Standard Deviation)","Cohort 3: 400 mg QD, Cycle 9, Day 1",−3.0 (11.8) percent predicted FEV1
same,"Change From Baseline in Percent Predicted Forced Expiratory Volume in 1 Second (FEV1), Mean (Standard Deviation)","Cohort 3: 400 mg QD, Cycle 10, Day 1",2.7 (3.9) percent predicted FEV1
same,"Change From Baseline in Percent Predicted Forced Expiratory Volume in 1 Second (FEV1), Mean (Standard Deviation)","Cohort 3: 400 mg QD, Cycle 11, Day 1",−4.4 (15.8) percent predicted FEV1
same,"Change From Baseline in Percent Predicted Forced Expiratory Volume in 1 Second (FEV1), Mean (Standard Deviation)","Cohort 3: 400 mg QD, Cycle 12, Day 1",0.3 (3.6) percent predicted FEV1
same,"Change From Baseline in Percent Predicted Forced Expiratory Volume in 1 Second (FEV1), Mean (Standard Deviation)","Cohort 3: 400 mg QD, Cycle 13, Day 1",−3.5 (13.2) percent predicted FEV1
same,"Change From Baseline in Percent Predicted Forced Expiratory Volume in 1 Second (FEV1), Mean (Standard Deviation)","Cohort 3: 400 mg QD, Cycle 14, Day 1",−5.1 (9.1) percent predicted FEV1
same,"Change From Baseline in Percent Predicted Forced Expiratory Volume in 1 Second (FEV1), Mean (Standard Deviation)","Cohort 3: 400 mg QD, Cycle 15, Day 1",−6.1 (12.6) percent predicted FEV1
same,"Change From Baseline in Percent Predicted Forced Expiratory Volume in 1 Second (FEV1), Mean (Standard Deviation)","Cohort 3: 400 mg QD, Cycle 16, Day 1",−4.5 (7.3) percent predicted FEV1
same,"Change From Baseline in Percent Predicted Forced Expiratory Volume in 1 Second (FEV1), Mean (Standard Deviation)","Cohort 3: 400 mg QD, Cycle 17, Day 1",−7.9 (15.5) percent predicted FEV1
same,"Change From Baseline in Percent Predicted Forced Expiratory Volume in 1 Second (FEV1), Mean (Standard Deviation)","Cohort 3: 400 mg QD, Cycle 18, Day 1",4.0 (6.0) percent predicted FEV1
same,"Change From Baseline in Percent Predicted Forced Expiratory Volume in 1 Second (FEV1), Mean (Standard Deviation)","Cohort 3: 400 mg QD, Cycle 19, Day 1",0.5 (8.5) percent predicted FEV1
same,"Change From Baseline in Percent Predicted Forced Expiratory Volume in 1 Second (FEV1), Mean (Standard Deviation)","Cohort 3: 400 mg QD, Cycle 25, Day 1",−5.0 (11.4) percent predicted FEV1
same,"Change From Baseline in Percent Predicted Forced Expiratory Volume in 1 Second (FEV1), Mean (Standard Deviation)","Cohort 3: 400 mg QD, Cycle 27, Day 1",−10.0 (17.0) percent predicted FEV1
same,"Change From Baseline in Percent Predicted Forced Expiratory Volume in 1 Second (FEV1), Mean (Standard Deviation)","Cohort 3: 400 mg QD, Cycle 29, Day 1",0.0 (1.4) percent predicted FEV1
same,"Change From Baseline in Percent Predicted Forced Expiratory Volume in 1 Second (FEV1), Mean (Standard Deviation)","Cohort 3: 400 mg QD, Cycle 31, Day 1",−4.0 (—) percent predicted FEV1
same,"Change From Baseline in Percent Predicted Forced Expiratory Volume in 1 Second (FEV1), Mean (Standard Deviation)","Cohort 3: 400 mg QD, Cycle 35, Day 1",−4.0 (—) percent predicted FEV1
same,"Change From Baseline in Percent Predicted Forced Expiratory Volume in 1 Second (FEV1), Mean (Standard Deviation)","Cohort 3: 400 mg QD, Cycle 36, Day 1",5.0 (—) percent predicted FEV1
same,"Change From Baseline in Percent Predicted Forced Expiratory Volume in 1 Second (FEV1), Mean (Standard Deviation)","Cohort 3: 400 mg QD, Cycle 39, Day 1",−5.0 (—) percent predicted FEV1
same,"Change From Baseline in Percent Predicted Forced Expiratory Volume in 1 Second (FEV1), Mean (Standard Deviation)","Cohort 3: 400 mg QD, Cycle 43, Day 1",−7.0 (—) percent predicted FEV1
same,"Change From Baseline in Percent Predicted Forced Expiratory Volume in 1 Second (FEV1), Mean (Standard Deviation)","Cohort 3: 400 mg QD, Cycle 47, Day 1",−5.0 (—) percent predicted FEV1
same,"Change From Baseline in Percent Predicted Forced Expiratory Volume in 1 Second (FEV1), Mean (Standard Deviation)","Cohort 3: 400 mg QD, Cycle 49, Day 1",−2.0 (—) percent predicted FEV1
same,"Change From Baseline in Percent Predicted Forced Expiratory Volume in 1 Second (FEV1), Mean (Standard Deviation)","Cohort 3: 400 mg QD, EOT",−7.4 (14.9) percent predicted FEV1
